From US11466010B2, “Toll-like receptor 8 (TLR8) specific antagonists and methods of making and uses thereof” (The Regents of the University of Colorado, a body corporate, priority 2017, dated 2022) come the findings set out here.

The target in experiment [1] is T1, human TLR8 (Homo sapiens, UniProt Q9NR97).
T1 construct: expressed in transfected cells; host or cells: HEK-Blue Null1 cells, lentiviral infection
T1 sequence (Q9NR97 27-1041): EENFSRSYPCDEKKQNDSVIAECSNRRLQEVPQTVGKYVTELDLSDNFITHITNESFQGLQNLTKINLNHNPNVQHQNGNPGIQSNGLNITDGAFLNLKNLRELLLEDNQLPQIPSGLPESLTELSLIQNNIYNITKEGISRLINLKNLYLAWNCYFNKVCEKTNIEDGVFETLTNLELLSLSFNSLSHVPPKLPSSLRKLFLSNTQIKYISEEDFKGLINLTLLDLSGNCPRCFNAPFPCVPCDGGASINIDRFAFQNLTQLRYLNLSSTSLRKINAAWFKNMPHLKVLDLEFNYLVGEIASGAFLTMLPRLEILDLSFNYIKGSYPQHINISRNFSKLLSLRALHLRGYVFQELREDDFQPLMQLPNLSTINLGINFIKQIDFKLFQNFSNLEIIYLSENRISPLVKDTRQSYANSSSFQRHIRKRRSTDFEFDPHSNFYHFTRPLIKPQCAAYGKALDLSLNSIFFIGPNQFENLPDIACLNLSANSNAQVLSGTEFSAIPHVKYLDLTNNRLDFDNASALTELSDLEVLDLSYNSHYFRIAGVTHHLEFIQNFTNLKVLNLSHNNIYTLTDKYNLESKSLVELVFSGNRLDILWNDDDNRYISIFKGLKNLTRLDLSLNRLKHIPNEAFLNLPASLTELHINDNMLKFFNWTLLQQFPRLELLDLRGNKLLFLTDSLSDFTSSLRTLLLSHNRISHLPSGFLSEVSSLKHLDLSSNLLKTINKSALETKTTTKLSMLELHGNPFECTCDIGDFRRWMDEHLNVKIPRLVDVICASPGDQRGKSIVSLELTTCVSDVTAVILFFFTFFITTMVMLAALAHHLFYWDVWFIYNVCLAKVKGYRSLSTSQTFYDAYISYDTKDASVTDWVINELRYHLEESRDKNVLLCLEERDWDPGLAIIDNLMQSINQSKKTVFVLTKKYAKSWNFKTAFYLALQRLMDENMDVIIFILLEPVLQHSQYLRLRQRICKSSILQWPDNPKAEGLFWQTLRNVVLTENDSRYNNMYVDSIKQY
Nature of the experiment: SEAP reporter assay in HEK-Blue TLR8 cells, R848-induced TLR8 signaling. The format is cell-based. Conditions: for inhibitory activity against TLR8 signaling: up to 20 μM. The method, then: SEAP reporter assay: HEK-Blue TLR8 cells were seeded in tissue culture treated 96-well plates with a density of 7.5×10^4 cells/well in DMEM media supplemented with 10% FBS (phosphatases deactivated with heat). […] Plates are then incubated in humidified incubators containing 5% CO2 at 37° C. for 24 h, after which, 30 μL of culture media was transfer to a new plate and 100 μL of Quanti-Blue (Invivogen) was added, the plate was then incubated at 37° C. till color change (30 min-1 h). Readout of absorbance at 620 nm was quantified using Beckman-Coulter DTX 880 Multimode Detector. […] SEAP assays for each sample were conducted with three biological replicates, each in triplicate.
To establish a robust high throughput assay for TLR8 inhibitors, the inventors first engineered a cell line stably overexpressing the human TLR8 whose activation can be reported by the Secreted Embryonic Alkaline Phosphatase (SEAP) assay. TLR8-overexpresing HEK-Blue cells were prepared by lentiviral infection of HEK-Blue Null1 cells that have null or low basal expression of endogenous TLR genes. […] The TLR8-mediated NF-κB activation can be assessed by measuring the SEAP activity.

For experiment [2], the system named is TNF-α production in PBMCs from an AOSD patient. Nature of the experiment: TNF-α level in PBMCs harvested from an AOSD patient. Type of experiment: cell-based, human. The settings on record: negative control, 40 μM. The protocol:
But there is a lack of appropriate rodent models because TLR8 is not functional in either mice or rats. Therefore, the TLR8 inhibitors of this disclosure were tested in human specimens harvested from patients with osteoarthritis (OA), rheumatoid arthritis (RA), and adult onset-Still's disease (AOSD). It is well established that TNF-α and IL-1β are key cytokines in the process of chronic joint inflammation in cartilage. Therefore, synovial cells were isolated from synovial tissue of patients who underwent joint replacement surgery due to severe OA. Previous studies have indicated these pathological tissues express both TLR7 and TLR8 with elevated production of various cytokines, contributing to extensive articular destruction and functional decline.

Experiment [3] concerns TLR8-mediated TNF-α production in PBMC cells. Nature of the experiment: R848-induced TNF-α secretion in PBMCs. Type of experiment: cell-based, human. Conditions: 1 μg/mL R848; dose-dependent; 4a at 50 μM. An excerpt:
Peripheral blood mononuclear cells (PBMCs) include lymphocytes (T cells, B cells, and NK cells), monocytes, and dendritic cells expressing various TLRs. TLR7 and TLR8 are both expressed on B cells and monocytes, while DC plasmacytoids (DCps) express only TLR7 and immature DCs (DC11c^+) express only TLR8.

For experiment [4], the system named is TLR8-mediated TNF-α production in THP-1 cells. Briefly: R848-induced TNF-α production in differentiated THP-1 monocytes. The format is cell-based, human. The settings on record: 10 μM.
Experiment [5] relates to TLR8-mediated TNF-α and IL-8 mRNA. Briefly: RT-PCR of TNF-α and IL-8 mRNA in R848 treated HEK-Blue TLR8 cells. The format is cell-based, human. Conditions: negative control, 10 μM. An excerpt: R848-induced TLR8 activation results in increased production of the proinflammatory cytokines, such as TNF-α, IL-6 and IL-8.
Experiment [6] deals with TNF-α production in PBMCs from RA patients. Briefly: TNF-α level in PBMCs harvested from RA patients. Type of experiment: cell-based, human. The settings on record: negative control, up to 80 μM.
Where [7] appears, read: 1(2H)-phthalazinone and quinoline derivatives in HEK-Blue hTLR8 cells.
The mark [8] stands for this setting: pyrazolo[1,5-a]pyrimidine derivatives in HEK-Blue hTLR8 cells, ± SD, at least three biological replicates.
Setting [9] is: quinoline derivatives in HEK-Blue hTLR8 cells, ± SD, at least three biological replicates.
Where [10] appears, read: same column as E3, cell prints (nM), HEK-Blue hTLR8 cells.

Entries after “also recorded” stand apart in the source; their conditions may differ.

For the compound `Cc1cc(-c2n[nH]c(=O)c3cccc(C)c23)ccc1O` [Compound 34, 4-(4-Hydroxy-3-methylphenyl)-5-methyl-1(2H)-phthalazinone], the IC50 (as a rule, the point on the concentration scale where inhibition reaches its midpoint) in experiment [1] (setting [7]) is greater than 20000 nM.

On to `NC(=O)c1cnn2c(-c3cccnc3)ccnc12` [Compound 6l], for which the half-maximal inhibitory concentration (IC50) in experiment [1] (HEK-Blue TLR8 cells) and in experiment [1] (setting [8]) was greater than 20000 nM in each case.

`Cc1cc(-c2cncc3ccccc23)ccc1O` [Compound 39, 4-Isoquinolin-4-yl-2-methylphenol] displayed an IC50 in experiment [1] (setting [7]) of 160 ± 20 nM.

The compound `Cc1cc(-c2n[nH]c(=O)c3ccccc23)ccc1O` [Compound 21, 4-(4-Hydroxy-3-methylphenyl)-1(2H)-phthalazinone] yielded an IC50 in experiment [1] (setting [7]) of 1300 ± 320 nM.

Regarding `Cc1cc(-c2cccc3ccccc23)cc(C)c1O` [Compound 42, 1-(4-Hydroxy-3,5-dimethylphenyl)naphthalene], in experiment [1] (setting [7]), the IC50 was 1220 ± 100 nM.

Regarding `Cc1cc(-c2n[nH]c(=O)c3ccccc23)ccc1C(=O)O` [Compound 14, 4-(4-Carboxylic-3-methylphenyl)-1(2H)-phthalazinone], the IC50 in experiment [1] (setting [7]) was greater than 20000 nM.

Regarding `Cc1cc(-c2n[nH]c(=O)c3ccccc23)cc(C)c1O` [Compound 20, 4-(4-Hydroxy-3,5-dimethylphenyl)-1(2H)-phthalazinone], in experiment [1] (setting [7]), 3910 ± 200 nM corresponded to half-maximal inhibition (IC50).

Compound `CCOc1ccc(-c2nn(CC)c(=O)c3ccccc23)cc1C` [Compound 32, 4-(4-Ethoxyl-3-methylphenyl)-2-ethyl-1(2H)-phthalazinone] registered a 50% inhibitory concentration (IC50) in experiment [1] (setting [7]) greater than 20000 nM.

Regarding `Cc1cc(-c2c[nH]c3ccccc23)ccc1O` [Compound 47, 3-(4-Hydroxy-3-methylphenyl)-indole], half-maximal inhibition in experiment [1] (setting [7]) (IC50) required 2800 ± 690 nM.

As for `O=C(O)c1cnn2c(-c3cccc(C(F)(F)F)c3)ccnc12` [Compound 4a], the “inhibitory activity on TNF-α level in PBMCs from an AOSD patient” value in experiment [2] is recorded as “did not show notable inhibitory activity”. The “inhibitory activity against TLR8 signaling” value in experiment [1] is recorded as “did not show any inhibitory activity”. The “R848-induced TNF-α secretion of PBMCs” value in experiment [3] is given as “not”. Besides, the “inhibition of R848-induced TNF-α production” value in experiment [4] is recorded as “failed to show significant inhibition”. Further, the “inhibition of R848-induced TNF-α and IL-8 mRNA levels” value in experiment [5] is on record as “negligible inhibition”. In addition, the “inhibition of TNF-α level in PBMCs from RA patients” value in experiment [6] is recorded as “did not show significant inhibition; also recorded: did not show notable inhibitory activity”.

As for `CCN(CC)C(=O)c1cnn2c(-c3cccc(C(F)(F)F)c3)ccnc12` [Compound 6o], the “inhibitory activity against TLR8 signaling” value in experiment [1] is given as “no significant activity”.

`Cc1cc(-c2ccc(O)c(C)c2)c2ccccc2n1` [Compound 11c]: the half-inhibitory concentration (IC50) in experiment [1] (setting [9]) was 86 ± 11 nM.

Regarding `O=c1[nH]nc(-c2ccccc2)c2ccccc12` [Compound 5, 4-Phenyl-1(2H)-phthalazinone], the 50% inhibitory concentration (IC50) in experiment [1] (setting [7]) is greater than 20000 nM.

In turn, `Cc1cc(-c2n[nH]c3ccccc23)ccc1O` [Compound 48, 3-(4-Hydroxy-3-methylphenyl)-1H-indazole] registered a concentration for half-maximal inhibition (IC50) in experiment [1] (setting [7]) greater than 20000 nM.

As to `CNC(=O)c1cnn2c(-c3cccc(C(F)(F)F)c3)ccnc12` [Compound 6n], the half-maximal inhibitory concentration (IC50) in experiment [1] (setting [8]) came out at 1700 nM. The “fold reduction in potency” value in experiment [1] (secondary amide analog versus primary amide) turned out to be 25 fold.

`Cn1nc(-c2ccccc2)c2ccccc2c1=O` [Compound 6, 2-Methyl-4-phenyl-1(2H)-Phthalazinone] had a half-maximal inhibitory concentration (IC50) in experiment [1] (setting [7]) greater than 20000 nM.

Regarding `Cc1cc(-c2cn(C(=O)OC(C)(C)C)c3ccccc23)ccc1O` [Compound 46, N-tert-butoxycarbonyl-3-(4-Hydroxy-3-methylphenyl)-indole], the IC50 in experiment [1] (setting [7]) was greater than 20000 nM.

In experiment [1] (setting [7]), `Cc1cc(-c2ccnc3cccnc23)ccc1O` [Compound 50, 4-(4-Hydroxyl-3-methylphenyl)-1,5-naphthyridine] had an IC50 of 300 ± 70 nM.

Regarding `Cc1cc(-c2ccnc3ccccc23)cc(C)c1O` [Compound 36, 4-(3,5-Dimethyl-4-Hydroxyphenyl)quinoline], it took 25.5 ± 10.7 nM to reach half-maximal inhibition in experiment [1] (setting [10]) (IC50).

Regarding `O=c1[nH]nc(-c2ccccc2)c2ccccc12` [Compound 14a], the half-inhibitory concentration (IC50) in experiment [1] (setting [9]) was greater than 20000 nM.

`COC(=O)c1ccc(-c2n[nH]c(=O)c3ccccc23)cc1C` [Compound 16, 4-(4-Carbomethoxyl-3-methylphenyl)-1(2H)-phthalazinone]: in experiment [1] (setting [7]), the midpoint of inhibition, the IC50, lay at 8510 ± 3150 nM.

`NC(=O)c1cnn2c(-c3ccccc3)ccnc12` [Compound 6e] displayed an IC50 in experiment [1] (HEK-Blue TLR8 cells, R848 as agonist) of 760 nM.

In experiment [1] (setting [8]), `NC(=O)c1cnn2c(-c3cccc(Cl)c3)ccnc12` [Compound 6h] displayed an IC50 of 280 ± 100 nM.

In experiment [1] (setting [10]), `Cc1cc(-c2ccnc3ccccc23)ccc1O` [Compound 37, 4-(3-Methyl-4-Hydroxyphenyl)quinoline] gave an IC50 of 38.6 ± 5.75 nM.

In experiment [1] (setting [8]), `CCc1cccc(-c2ccnc3c(C(N)=O)cnn23)c1` [Compound 6m] returned an IC50 of 120 ± 23 nM.
